Results on two substances are retold here after patent US20250161403A1, “PEPTIDES AND METHODS OF USE THEREOF IN TREATING OCULAR DISORDERS” (Biomarck Pharmaceuticals, Ltd., priority 2022, published 2025).

Holding throughout (format): in vivo, Sprague-Dawley rats
In test [1] the test system is dry eye in the Alacrimal Rat Model. The test is described as follows: Alacrimal rat dry eye model: clinical examination by biomicroscopy, corneal opacity score. Particulars: for Corneal scores compared to sham: 100 μM topical 4 times a day, days 3 and 7. The procedure:
(§1) Dry eye was induced in the left eye of Sprague-Dawley rats by removal of the extraorbital lacrimal gland. […] Topical administration of test compounds was initiated 2 weeks after surgery, given 4 times a day and continued for 24 days. Sham rats (n=6) were untreated. Alacrimal rats (n=6 each) were dosed bilaterally with 10 μL of phosphate buffered saline (PBS), or 100 μM of either of two MARCKS inhibitors: BIO-11006 [high molecular weight] or BIO-91201 [lower molecular weight]. The efficacy of these MARCKS inhibitor peptides was assessed via clinical examination using biomicroscopy and phenol red test (PRT) tear volume with the observers masked to the treatments. Examinations were at baseline, 2 weeks after surgery, and on days 1, 3, 7, 14, 21, and 24 after initiating dosing. Clinical scores for corneal opacity, vascularization, and corneal fluorescein (FL) retention were recorded at each examination.
Corneal scores were assessed as in the table below.

The test system is the same in test [2]. Description: Alacrimal rat dry eye model: corneal fluorescein (FL) retention score. Particulars: 100 μM topical 4 times a day. The procedure: as §1
PRT was higher in MARCKs inhibitor-dosed groups compared to PBS groups on days 14, 21, and 24 after surgery (p<0.02; t test). Fluorescein retention score was measured as shown in the table below, and the scores and statistical analyses are provided in FIG. 2.
Fluorescein retention scores.

Test [3] has the same test system. The test is described as follows: Alacrimal rat dry eye model: phenol red test (PRT) tear volume. Particulars: overall conclusion of the study; 100 μM topical. The procedure:
as §1
FIG. 3 provides the results of the phenol red test (PRT), showing tear measurement in mm/20 s averaged for each group.

For the substance Ac-AKGE-OH [BIO-91201], in test [1], the “Corneal scores compared to sham” value is “no difference between sham and BIO-91201”. The corneal opacity scores result in test [1] (100 μM, 10 μL topical 4 times a day for 24 days, relative to PBS and BIO-11006 dosed groups) was “reduced corneal opacity scores relative to the PBS and BIO-11006 dosed groups”. In addition, the “effect on indicators of dry eye disease including corneal scores and corneal fluorescein retention” value in test [1] (overall conclusion of the study, 100 μM topical) is “significant positive effect”. Further, in test [2] (through day 14), the “FL retention scores versus sham eyes” value is “not significantly different than sham eyes”. Also, in test [2] (versus PBS or BIO-11006 dosed eyes, p<0.02), the “corneal fluorescein (FL) retention” value is “significantly lower FL retention than PBS or BIO-11006 dosed eyes”. Besides, the tear production result in test [3] is “improvement in tear production”.

Turning to “BIO-11006: N-terminal acetylated peptide of SEQ ID NO 106 (GAQFSKTAAK), free C-terminus; MARCKS inhibitor, high molecular weight (Ac-GAQFSKTAAK-OH)”, the “Corneal scores compared to sham” value in test [1] was “significantly elevated”.
